Test results reported in US12156880B2, “Heterocyclic RIP1 kinase inhibitors” (Rigel Pharmaceuticals, Inc., priority 2021, dated 2024).

What was measured:
U937 cells = assay: U937 cell necroptosis assay (TNFa + zVAD, CellTiter-Glo recovery); format: cell-based; details: Homo sapiens, U-937, 18 h, TNFa 2 ng/mL + zVAD-fmk, read-out: U937 Zvad TNF CTG Recovery, U937, TNFa + zVAD (IC50)
Method in brief: (§1)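 Human U937 (50K/well, 60 uM zVAD-fmk medium, plated same day) or murine L929 (10K/well, plated 18 h, then 40 uM zVAD-fmk medium) were grown in RPMI with 10% FBS. Both were pretreated with compound for 1 h at 37 °C before TNFa at 2 ng/mL final. Viability was read by CellTiter-Glo luminescence after 18 h.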

L929 cells = assay: L929 cell necroptosis assay (TNFa + zVAD, CellTiter-Glo recovery); format: cell-based, murine; details: Mus musculus, L929, 18 h, TNFa 2 ng/mL + zVAD-fmk, read-out: L929-CTG-recovery, L929, TNFa + zVAD (IC50)
Method in brief: as §1

RIPK1 = target: T1, RIPK1 (Homo sapiens, UniProt Q13546); assay: RIPK1 ADP-Glo biochemical kinase assay; details: read-out: RIPK1 ADP-Glo Kinase (IC50)
T1 sequence (Q13546 1-671): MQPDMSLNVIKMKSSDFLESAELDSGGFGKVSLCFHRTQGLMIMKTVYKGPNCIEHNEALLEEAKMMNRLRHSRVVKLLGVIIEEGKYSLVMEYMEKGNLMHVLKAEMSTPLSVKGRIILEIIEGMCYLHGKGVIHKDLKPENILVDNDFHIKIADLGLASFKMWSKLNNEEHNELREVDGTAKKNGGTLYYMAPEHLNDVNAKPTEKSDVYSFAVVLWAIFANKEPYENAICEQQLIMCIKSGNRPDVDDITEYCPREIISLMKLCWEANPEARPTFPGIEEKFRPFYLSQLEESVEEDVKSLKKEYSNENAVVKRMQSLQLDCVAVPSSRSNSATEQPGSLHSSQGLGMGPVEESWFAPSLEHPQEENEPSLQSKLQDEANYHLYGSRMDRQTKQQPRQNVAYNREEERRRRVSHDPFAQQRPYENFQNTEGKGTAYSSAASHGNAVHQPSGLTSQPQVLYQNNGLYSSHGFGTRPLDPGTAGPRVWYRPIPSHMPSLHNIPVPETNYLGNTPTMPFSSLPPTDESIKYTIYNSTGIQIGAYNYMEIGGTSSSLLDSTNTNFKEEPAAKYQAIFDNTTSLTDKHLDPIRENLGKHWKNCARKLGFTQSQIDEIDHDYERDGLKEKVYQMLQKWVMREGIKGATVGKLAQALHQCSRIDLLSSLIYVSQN
Method in brief: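 RIPK1 at 31 ng/well in Tris pH 7.4 buffer with MgCl2, BSA, DTT and MnCl2, reacted with compounds (duplicate) for 30 min at 30 °C. ADP formed detected by ADP-Glo: 40 min stop/depletion, then 30 min detection reagent at room temperature; luminescence read.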

CN1C(=O)[C@@H](NC(=O)c2cc(Oc3cncc(F)c3)ccn2)COc2ccc(C#CC3(O)COC3)cc21 [I-59, (S)-4-((5-fluoropyridin-3-yl)oxy)-N-(7-((3-hydroxyoxetan-3-yl)ethynyl)-5-methyl-4-oxo-2,3,4,5-tetrahydrobenzo[b][1,4]oxazepin-3-yl)picolinamide]
IC50 (U937 cells): 3.5 nM
IC50 (L929 cells): 382 nM
IC50 (RIPK1): 15.9 nM

CN1C(=O)[C@@H](NC(=O)c2cc(Oc3cncc(F)c3)ccn2)COc2ccc(C#CC(C)(C)O)cc21 [I-60, (S)-4-((5-fluoropyridin-3-yl)oxy)-N-(7-(3-hydroxy-3-methylbut-1-yn-1-yl)-5-methyl-4-oxo-2,3,4,5-tetrahydrobenzo[b][1,4]oxazepin-3-yl)picolinamide]
IC50 (U937 cells): 12.1 nM
IC50 (L929 cells): 4590 nM
IC50 (RIPK1): 12.8 nM

CN1C(=O)[C@@H](NC(=O)c2cc(Cc3cccnc3)ccn2)COc2ccc(C#CC(C)(C)O)cc21 [I-61, (S)—N-(7-(3-hydroxy-3-methylbut-1-yn-1-yl)-5-methyl-4-oxo-2,3,4,5-tetrahydrobenzo[b][1,4]oxazepin-3-yl)-4-(pyridin-3-ylmethyl)picolinamide]
IC50 (U937 cells): 19.2 nM
IC50 (L929 cells): 2420 nM
IC50 (RIPK1): 24.3 nM

CN1C(=O)[C@@H](NC(=O)c2cc(Cc3cccnc3)ccn2)COc2ccc(C#CC3(O)COC3)cc21 [I-62, (S)—N-(7-((3-hydroxyoxetan-3-yl)ethynyl)-5-methyl-4-oxo-2,3,4,5-tetrahydrobenzo[b][1,4]oxazepin-3-yl)-4-(pyridin-3-ylmethyl)picolinamide]
IC50 (U937 cells): 10.9 nM
IC50 (L929 cells): 1370 nM
IC50 (RIPK1): 21.5 nM

CN1C(=O)[C@@H](NC(=O)c2cc(Oc3cccnc3)ccn2)COc2ccc(C#CC3CCOCC3)cc21 [I-63, (S)—N-(5-methyl-4-oxo-7-((tetrahydro-2H-pyran-4-yl)ethynyl)-2,3,4,5-tetrahydrobenzo[b][1,4]oxazepin-3-yl)-4-(pyridin-3-yloxy)picolinamide]
IC50 (U937 cells): 0.7 nM
IC50 (L929 cells): 60 nM
IC50 (RIPK1): 19.5 nM

CN1C(=O)[C@@H](NC(=O)c2cc(Cc3ccccn3)ccn2)COc2ccc(C#CC3(O)COC3)cc21 [I-64, (S)—N-(7-((3-hydroxyoxetan-3-yl)ethynyl)-5-methyl-4-oxo-2,3,4,5-tetrahydrobenzo[b][1,4]oxazepin-3-yl)-4-(pyridin-2-ylmethyl)picolinamide]
IC50 (U937 cells): 67.9 nM
IC50 (L929 cells): 767 nM
IC50 (RIPK1): 30.7 nM

Cc1nc(Cc2ccnc(C(=O)N[C@H]3COc4ccc(C#CC(C)(C)O)cc4N(C)C3=O)c2)cs1 [I-65, (S)—N-(7-(3-hydroxy-3-methylbut-1-yn-1-yl)-5-methyl-4-oxo-2,3,4,5-tetrahydrobenzo[b][1,4]oxazepin-3-yl)-4-((2-methylthiazol-4-yl)methyl)picolinamide]
IC50 (U937 cells): 43.4 nM
IC50 (L929 cells): 76.3 nM
IC50 (RIPK1): 18.1 nM

Cc1nc(Cc2ccnc(C(=O)N[C@H]3COc4ccc(C#CC5(O)COC5)cc4N(C)C3=O)c2)cs1 [I-66, (S)—N-(7-((3-hydroxyoxetan-3-yl)ethynyl)-5-methyl-4-oxo-2,3,4,5-tetrahydrobenzo[b][1,4]oxazepin-3-yl)-4-((2-methylthiazol-4-yl)methyl)picolinamide]
IC50 (U937 cells): 35.4 nM
IC50 (L929 cells): 98 nM
IC50 (RIPK1): 15.4 nM

CN1C(=O)[C@@H](NC(=O)c2cc(Oc3cncc(F)c3)ccn2)COc2ccc(C#CC3COC3)cc21 [I-67, (S)-4-((5-fluoropyridin-3-yl)oxy)-N-(5-methyl-7-(oxetan-3-ylethynyl)-4-oxo-2,3,4,5-tetrahydrobenzo[b][1,4]oxazepin-3-yl)picolinamide]
IC50 (U937 cells): 1.3 nM
IC50 (L929 cells): 348 nM
IC50 (RIPK1): 20.1 nM

CN1C(=O)[C@@H](NC(=O)c2cc(Cn3cccn3)ccn2)COc2ccc(C#CC3(O)COC3)cc21 [I-70, (S)-4-((1H-pyrazol-1-yl)methyl)-N-(7-((3-hydroxyoxetan-3-yl)ethynyl)-5-methyl-4-oxo-2,3,4,5-tetrahydrobenzo[b][1,4]oxazepin-3-yl)picolinamide]
IC50 (U937 cells): 281 nM
IC50 (L929 cells): 2640 nM
IC50 (RIPK1): 44.9 nM

CN1C(=O)[C@@H](NC(=O)c2cc(Cn3cccn3)ccn2)COc2ccc(C#CC(C)(C)O)cc21 [I-71, (S)-4-((1H-pyrazol-1-yl)methyl)-N-(7-(3-hydroxy-3-methylbut-1-yn-1-yl)-5-methyl-4-oxo-2,3,4,5-tetrahydrobenzo[b][1,4]oxazepin-3-yl)picolinamide]
IC50 (U937 cells): 549 nM
IC50 (L929 cells): 2150 nM
IC50 (RIPK1): 87.8 nM

Cc1ccc(Cc2ccnc(C(=O)N[C@H]3COc4ccc(C#CC(C)(C)O)cc4N(C)C3=O)c2)cn1 [I-72, (S)—N-(7-(3-hydroxy-3-methylbut-1-yn-1-yl)-5-methyl-4-oxo-2,3,4,5-tetrahydrobenzo[b][1,4]oxazepin-3-yl)-4-((6-methylpyridin-3-yl)methyl)picolinamide]
IC50 (U937 cells): 190 nM
IC50 (L929 cells): 3010 nM
IC50 (RIPK1): 33.1 nM

Cc1ccc(Cc2ccnc(C(=O)N[C@H]3COc4ccc(C#CC5(O)COC5)cc4N(C)C3=O)c2)cn1 [I-73, (S)—N-(7-((3-hydroxyoxetan-3-yl)ethynyl)-5-methyl-4-oxo-2,3,4,5-tetrahydrobenzo[b][1,4]oxazepin-3-yl)-4-((6-methylpyridin-3-yl)methyl)picolinamide]
IC50 (U937 cells): 91.7 nM
IC50 (L929 cells): 1950 nM
IC50 (RIPK1): 27.6 nM

Cc1ncccc1Oc1ccnc(C(=O)N[C@H]2COc3ccc(C#CC(C)(C)O)cc3N(C)C2=O)c1 [I-74, (S)—N-(7-(3-hydroxy-3-methylbut-1-yn-1-yl)-5-methyl-4-oxo-2,3,4,5-tetrahydrobenzo[b][1,4]oxazepin-3-yl)-4-((2-methylpyridin-3-yl)oxy)picolinamide]
IC50 (U937 cells): 126 nM
IC50 (L929 cells): 3520 nM
IC50 (RIPK1): 35.9 nM

Cc1ncccc1Oc1ccnc(C(=O)N[C@H]2COc3ccc(C#CC4(O)COC4)cc3N(C)C2=O)c1 [I-75, (S)—N-(7-((3-hydroxyoxetan-3-yl)ethynyl)-5-methyl-4-oxo-2,3,4,5-tetrahydrobenzo[b][1,4]oxazepin-3-yl)-4-((2-methylpyridin-3-yl)oxy)picolinamide]
IC50 (U937 cells): 34.3 nM
IC50 (L929 cells): 1870 nM
IC50 (RIPK1): 10.4 nM

CN1C(=O)[C@@H](NC(=O)c2cc(Cc3cscn3)ccn2)COc2ccc(C#CC3(O)COC3)cc21 [I-76, (S)—N-(7-((3-hydroxyoxetan-3-yl)ethynyl)-5-methyl-4-oxo-2,3,4,5-tetrahydrobenzo[b][1,4]oxazepin-3-yl)-4-(thiazol-4-ylmethyl)picolinamide]
IC50 (U937 cells): 24.7 nM
IC50 (L929 cells): 538 nM
IC50 (RIPK1): 12.8 nM

CN1C(=O)[C@@H](NC(=O)c2cc(Cc3cscn3)ccn2)COc2ccc(C#CC(C)(C)O)cc21 [I-77, (S)—N-(7-(3-hydroxy-3-methylbut-1-yn-1-yl)-5-methyl-4-oxo-2,3,4,5-tetrahydrobenzo[b][1,4]oxazepin-3-yl)-4-(thiazol-4-ylmethyl)picolinamide]
IC50 (U937 cells): 62.2 nM
IC50 (L929 cells): 724 nM
IC50 (RIPK1): 21.8 nM

Cc1ccc(Oc2ccnc(C(=O)N[C@H]3COc4ccc(C#CC(C)(C)O)cc4N(C)C3=O)c2)c(C)n1 [I-78, (S)-4-((2,6-dimethylpyridin-3-yl)oxy)-N-(7-(3-hydroxy-3-methylbut-1-yn-1-yl)-5-methyl-4-oxo-2,3,4,5-tetrahydrobenzo[b][1,4]oxazepin-3-yl)picolinamide]
IC50 (U937 cells): 462 nM
IC50 (L929 cells): 6780 nM
IC50 (RIPK1): 36.1 nM
